Target: T1, PAF receptor (vital human blood platelets) (Homo sapiens, UniProt P25105)
T1 construct: endogenous in cells; host or cells: vital human blood platelets (thrombocytes) from blood samples of healthy donors, purified on Sepharose CL-2B
Assay: [3H]PAF receptor binding to vital human blood platelets
Settings: [3H]PAF 30 pmolar, 90 minutes, ambient temperature, Ki calculated from IC50
Description: [^3 H]PAF receptor binding to vital human blood platelets
This experiment determined the competitive interaction of the test substances (in this case PAF-antagonists) with the known interaction of the radioligand [^3 H]PAF to the same receptor.
The bonding studies were carried out on vital human thrombocytes. Blood samples from healthy donors were diluted with ACD buffer and centrifuged (15 minutes, 160×g). The platelet-rich plasma was purified by chromatography on Sepharose CL-2B (for eluting: HEPES buffer, pH 7.4, 20° C.).
Defined quantities (e.g., 800 μl) of the platelet suspension were incubated for 90 minutes at ambient temperature with:
a) a 30 pmolar [^3 H]PAF solution diluted with buffer;
b) a 30 pmolar [^3 H]PAF solution which simultaneously contains a μmolar (non-labelled) PAF solution; and
c) a 30 pmolar [^3 H]PAF solution and the solutions of the test substances (different concentrations).
Incubation a) was used to determine total binding. Incubation b) was used to determine non-specific binding.
The reaction was stopped by vacuum filtering. The filters with the blood platelets were mixed with scintillation liquid and the residual radioactivity was measured in a counter. The specific binding was obtained from the total binding minus the non-specific binding. […]

T1 sequence (P25105 whole entry): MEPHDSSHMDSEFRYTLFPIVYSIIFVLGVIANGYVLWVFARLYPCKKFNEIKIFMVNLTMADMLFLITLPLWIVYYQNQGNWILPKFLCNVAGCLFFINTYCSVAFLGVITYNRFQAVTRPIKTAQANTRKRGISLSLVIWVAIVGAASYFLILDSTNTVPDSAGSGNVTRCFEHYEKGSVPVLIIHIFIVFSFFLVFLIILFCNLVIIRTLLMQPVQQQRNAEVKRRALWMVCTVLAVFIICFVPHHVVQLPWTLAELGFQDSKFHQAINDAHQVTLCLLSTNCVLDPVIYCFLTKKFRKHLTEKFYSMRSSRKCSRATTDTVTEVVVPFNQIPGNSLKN

Row | Compound | Ki
1 | Cc1nnc2n1-c1sc3c(c1C(c1ccc(CCc4ccc(C(F)(F)F)cc4)cc1)=N[C@H]2C)CCC3 [Compound 2] | 0.47 nM
2 | Cc1nnc2n1-c1sc3c(c1C(c1ccc(CCc4ccc(C(F)(F)F)cc4)cc1)=NC2C)CCC3 (racemic) [Compound 1] | 0.79 nM

From patent publication US5185442A, “New diazepines substituted in the 6-position, processes for their preparation and their use as pharmaceutical compositions” (Boehringer Ingelheim KG, priority 1991, dated 1993)
